This passage reports IC50 results from US20160159816A1, “SUBSTITUTED THIENOPYRIMIDINES AND PHARMACEUTICAL USE THEREOF” (BAYER PHARMA AKTIENGESELLSCHAFT, priority 2013, published 2016).

In the experiment the target is T1, human full-length MKNK1 (Homo sapiens, UniProt Q9BUB5, T385D).
T1 construct: GST (N); purchased Carna Biosciences 02-145; host or cells: insect cells, baculovirus expression system
T1 sequence (Q9BUB5 1-424 isoform Q9BUB5-2 T344D): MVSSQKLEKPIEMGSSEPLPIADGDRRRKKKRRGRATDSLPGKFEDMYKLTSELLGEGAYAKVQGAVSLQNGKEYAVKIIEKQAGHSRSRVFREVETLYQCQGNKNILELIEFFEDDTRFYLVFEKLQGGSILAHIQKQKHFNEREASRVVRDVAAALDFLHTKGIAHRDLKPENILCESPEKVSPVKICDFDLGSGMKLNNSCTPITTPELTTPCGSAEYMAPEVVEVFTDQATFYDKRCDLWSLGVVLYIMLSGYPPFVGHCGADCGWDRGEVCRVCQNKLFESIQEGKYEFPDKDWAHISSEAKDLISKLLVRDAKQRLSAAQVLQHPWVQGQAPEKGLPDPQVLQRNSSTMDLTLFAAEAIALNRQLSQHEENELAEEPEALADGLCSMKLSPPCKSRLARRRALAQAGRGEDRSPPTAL
In words: MKNK1 kinase high ATP assay (TR-FRET). As to conditions: high ATP (2 mM), after preincubation with MKNK1; compounds of the present invention (Table 1a). The experiment is classed as biochemical. The method, then:
MKNK1-inhibitory activity at high ATP of compounds of the present invention after their preincubation with MKNK1 was quantified employing the TR-FRET-based MKNK1 high ATP assay as described in the following paragraphs.
A recombinant fusion protein of Glutathione-S-Transferase (GST, N-terminally) and human full-length MKNK1 (amino acids 1-424 and T344D of accession number BAA 19885.1), expressed in insect cells using baculovirus expression system and purified via glutathione sepharose affinity chromatography, was purchased from Carna Biosciences (product no 02-145) and used as enzyme. As substrate for the kinase reaction the biotinylated peptide biotin-Ahx-IKKRKLTRRKSLKG (C-terminus in amide form) was used, which can be purchased e.g. from the company Biosyntan (Berlin-Buch, Germany).
For the assay 50 nL of a 100 fold concentrated solution of the test compound in DMSO was pipetted into a black low volume 384 well microtiter plate (Greiner Bio-One, Frickenhausen, Germany), 2 μL of a solution of MKNK1 in aqueous assay buffer [50 mM HEPES pH 7.5, 5 mM MgCl2, 1.0 mM dithiothreitol, 0.005% (v/v) Nonidet-P40 (Sigma)] was added and the mixture was incubated for 15 min at 22° C. to allow pre-binding of the test compounds to the enzyme before the start of the kinase reaction. Then the kinase reaction was started by the addition of 3 μL of a solution of adenosine-tri-phosphate (ATP, 3.3 mM=>final conc. in the 5 μL assay volume is 2 mM) and substrate (0.1 μM=>final conc. in the 5 μL assay volume is 0.06 μM) in assay buffer and the resulting mixture was incubated for a reaction time of 30 min at 22° C. The concentration of MKNK1 was adjusted depending of the activity of the enzyme lot and was chosen appropriate to have the assay in the linear range, typical concentrations were in the range of 0.003 μg/mL. The reaction was stopped by the addition of 5 μL of a solution of TR-FRET detection reagents (5 nM streptavidine-XL665 [Cisbio Bioassays, Codolet, France] and 1 nM anti-ribosomal protein […] (pSer236)-antibody from Invitrogen [#44921G] and 1 nM LANCE EU-W1024 labeled ProteinG [Perkin-Elmer, product no. AD0071]) in an aqueous EDTA-solution (100 mM EDTA, 0.1% (w/v) bovine serum albumin in 50 mM HEPES pH 7.5).
The resulting mixture was incubated for 1 h at 22° C. to allow the formation of complex between the phosphorylated biotinylated peptide and the detection reagents. Subsequently the amount of phosphorylated substrate was evaluated by measurement of the resonance energy transfer from the Eu-chelate to the streptavidine-XL. Therefore, the fluorescence emissions at 620 nm and 665 nm after excitation at 350 nm were measured in a TR-FRET reader, e.g. a Rubystar (BMG Labtechnologies, Offenburg, Germany) or a Viewlux (Perkin-Elmer). The ratio of the emissions at 665 nm and at […] was taken as the measure for the amount of phosphorylated substrate. The data were normalised (enzyme reaction without inhibitor=0% inhibition, all other assay components but no enzyme=100% inhibition). […] Table 1a lists MKNK1 high ATP IC50 values of some compounds of the present invention.
In general terms: In TR-FRET formats the signal depends on donor and acceptor labels being close together.
As to `COCC1(OC)CCc2c(sc3ncnc(Nc4cc5cn[nH]c5cc4C)c23)C1` (single isomer, unassigned) [Example 41, (7S) or (7R) 7-Methoxy-7-(methoxymethyl)-N-(6-methyl-1H-indazol-5-yl)-5,6,7,8-tetrahydro[1]benzothieno[2,3-d]pyrimidin-4-amine], the IC50 (in general, the concentration that inhibits the measured activity by half) is 371 nM.
`CC(C)(O)C(=O)NCC1CCc2c(sc3ncnc(Nc4ccc5[nH]ncc5c4)c23)C1` (racemic) [Example 13, (RS)-2-Hydroxy-N-{[4-(1H-indazol-5-ylamino)-5,6,7,8-tetrahydro[1]benzothieno[2,3-d]pyrimidin-7-yl]methyl}-2-methylpropanamide]: the midpoint of inhibition, the IC50, lay at 12.4 nM.
For `CC(C)C(=O)NCC1CCc2c(sc3ncnc(Nc4ccc5[nH]ncc5c4)c23)C1` (racemic) [Example 10, (RS)—N-{[4-(1H-Indazol-5-ylamino)-5,6,7,8-tetrahydro[1]benzothieno[2,3-d]pyrimidin-7-yl]methyl}-2-methylpropanamide], the half-maximal inhibitory concentration (IC50) came to 11 nM.
Molecule `COCC1(OC)CCc2c(sc3ncnc(Nc4cc5cn[nH]c5cc4F)c23)C1` (single isomer, unassigned) [Example 45, (7S) or (7R) N-(6-Fluoro-1H-indazol-5-yl)-7-methoxy-7-(methoxymethyl)-5,6,7,8-tetrahydro[1]benzothieno[2,3-d]pyrimidin-4-amine] yielded an IC50 of 89 nM.
On to `CC[C@@]1(C(=O)N(C)C)CCc2c(sc3ncnc(Nc4cc5cn[nH]c5cc4OC)c23)C1` [Example 50, (7R) 7-Ethyl-4-[(6-methoxy-1H-indazol-5-yl)amino]-N,N-dimethyl-5,6,7,8-tetrahydro[1]benzothieno[2,3-d]pyrimidine-7-carboxamide], for which half-maximal inhibition (IC50) required 19.6 nM.
With `Cc1cc2[nH]ncc2cc1Nc1ncnc2sc3c(c12)CCC(C)C3` (racemic) [Example 25, (RS)-7-Methyl-N-(6-methyl-1H-indazol-5-yl)-5,6,7,8-tetrahydro[1]benzothieno[2,3-d]pyrimidin-4-amine], inhibition was half-maximal at 124 nM (IC50).
As to `CC1CCc2c(sc3ncnc(Nc4cc5cn[nH]c5cc4F)c23)C1` (racemic) [Example 28, (RS)—N-(6-Fluoro-1H-indazol-5-yl)-7-methyl-5,6,7,8-tetrahydro[1]benzothieno[2,3-d]pyrimidin-4-amine], 67.1 nM corresponded to half-maximal inhibition (IC50).
The molecule `COCC1(OC)CCc2c(sc3ncnc(Nc4cc5cn[nH]c5cc4OC)c23)C1` (single isomer, unassigned) [Example 43, (7S) or (7R) 7-Methoxy-N-(6-methoxy-1H-indazol-5-yl)-7-(methoxymethyl)-5,6,7,8-tetrahydro[1]benzothieno[2,3-d]pyrimidin-4-amine] yielded an IC50 of 12.5 nM.
With `CN(C)C1CCc2c(sc3ncnc(Nc4ccc5[nH]ncc5c4)c23)C1` (racemic) [Example 35, (RS)—N^4-(1H-Indazol-5-yl)-N^7,N^7-dimethyl-5,6,7,8-tetrahydro[1]benzothieno[2,3-d]pyrimidine-4,7-diamine] the figure was 220 nM; with `COc1cc2[nH]ncc2cc1Nc1ncnc2sc3c(c12)CC[C@](C)(C(=O)N(C)C)C3` [Example 48, (7S) 4-[(6-Methoxy-1H-indazol-5-yl)amino]-N,N,7-trimethyl-5,6,7,8-tetrahydro[1]benzothieno[2,3-d]pyrimidine-7-carboxamide], 2.4 nM.
`CC[C@]1(C(=O)N(C)OC)CCc2c(sc3ncnc(Nc4cc5cn[nH]c5cc4OC)c23)C1` [Example 67, (7S) 7-Ethyl-N-methoxy-4-[(6-methoxy-1H-indazol-5-yl)amino]-N-methyl-5,6,7,8-tetrahydro[1]benzothieno[2,3-d]pyrimidine-7-carboxamide] displayed a half-maximal inhibitory concentration (IC50) of 1.8 nM.
`CC(C)S(=O)(=O)NCC1CCc2c(sc3ncnc(Nc4ccc5[nH]ncc5c4)c23)C1` (racemic) [Example 11, (RS)—N-{[4-(1H-Indazol-5-ylamino)-5,6,7,8-tetrahydro[1]benzothieno[2,3-d]pyrimidin-7-yl]methyl}propane-2-sulfonamide] returned an IC50 of 16.4 nM.
In turn, `CC[C@]1(C(=O)N2C[C@@H](C)O[C@@H](C)C2)CCc2c(sc3ncnc(Nc4cc5cn[nH]c5cc4OC)c23)C1` [Example 71, (7S) [(2R,6S)-2,6-Dimethylmorpholin-4-yl]{7-ethyl-4-[(6-methoxy-1H-indazol-5-yl)amino]-5,6,7,8-tetrahydro[1]benzothieno[2,3-d]pyrimidin-7-yl}methanone] had a half-maximal inhibitory concentration (IC50) of 1.6 nM.
`COCC1(OC)CCc2c(sc3ncnc(Nc4cc5cn[nH]c5cc4F)c23)C1` (single isomer, unassigned) [Example 44, (7R) or (7S) N-(6-Fluoro-1H-indazol-5-yl)-7-methoxy-7-(methoxymethyl)-5,6,7,8-tetrahydro[1]benzothieno[2,3-d]pyrimidin-4-amine] registered an IC50 of 74.3 nM.
With `COc1cc2[nH]ncc2cc1Nc1ncnc2sc3c(c12)CCCC3` [Example 2, N-(6-methoxy-1H-indazol-5-yl)-5,6,7,8-tetrahydro[1]benzothieno[2,3-d]pyrimidin-4-amine] the figure was 13.5 nM; with `COc1cc2[nH]ncc2cc1Nc1ncnc2sc3c(c12)CC[C@](C)(C(=O)N1CCC1)C3` [Example 60, (7S) Azetidin-1-yl{(7S)-4-[(6-methoxy-1H-indazol-5-yl)amino]-7-methyl-5,6,7,8-tetrahydro[1]benzothieno[2,3-d]pyrimidin-7-yl}methanone], 3.7 nM.
As for `CC[C@]1(C(=O)N(C)C(C)C)CCc2c(sc3ncnc(Nc4cc5cn[nH]c5cc4OC)c23)C1` [Example 73, (7S) 7-Ethyl-N-isopropyl-4-[(6-methoxy-1H-indazol-5-yl)amino]-N-methyl-5,6,7,8-tetrahydro[1]benzothieno[2,3-d]pyrimidine-7-carboxamide], the concentration for half-maximal inhibition (IC50) came out at 1.4 nM.
`COc1cc2[nH]ncc2cc1Nc1ncnc2sc3c(c12)CC[C@@](C)(C(=O)N1CCC1)C3` [Example 61, (7R) Azetidin-1-yl{(7S)-4-[(6-methoxy-1H-indazol-5-yl)amino]-7-methyl-5,6,7,8-tetrahydro[1]benzothieno[2,3-d]pyrimidin-7-yl}methanone] came in with an IC50 of 11.7 nM.
`COc1cc2[nH]ncc2cc1Nc1ncnc2sc3c(c12)CC[C@](C)(C(=O)N1CCOCC1)C3` [Example 52, (7S) {4-[(6-Methoxy-1H-indazol-5-yl)amino]-7-methyl-5,6,7,8-tetrahydro[1]benzothieno[2,3-d]pyrimidin-7-yl}(morpholin-4-yl)methanone] gave an IC50 of 2 nM.
In turn, `CC[C@]1(C(=O)N2CCOCC2)CCc2c(sc3ncnc(Nc4cc5cn[nH]c5cc4OC)c23)C1` [Example 63, (7S) {7-Ethyl-4-[(6-methoxy-1H-indazol-5-yl)amino]-5,6,7,8-tetrahydro[1]benzothieno[2,3-d]pyrimidin-7-yl}(morpholin-4-yl)methanone] showed an IC50 of 1.8 nM.
With `CC[C@]1(C(=O)N2CCC2)CCc2c(sc3ncnc(Nc4cc5cn[nH]c5cc4OC)c23)C1` [Example 69, (7S) Azetidin-1-yl{(7S)-7-ethyl-4-[(6-methoxy-1H-indazol-5-yl)amino]-5,6,7,8-tetrahydro[1]benzothieno[2,3-d]pyrimidin-7-yl}methanone] the figure was 3.4 nM.
